According to ChEMBL document CHEMBL1133787, “Solid-phase optimisation of achiral amidinobenzyl indoles as potent and selective factor Xa inhibitors” (Bioorg Med Chem Lett, 2001):

Legend:
Coagulation factor X = Coagulation factor X (Homo sapiens, UniProt P00742); assay: Inhibitory activity against serine protease factor Xa (fXa) was determined
Prothrombin = Prothrombin (Homo sapiens, UniProt P00734); assay: Inhibitory activity against thrombin was determined

Chain of Coagulation factor X (P00742 41-179 limits assumed): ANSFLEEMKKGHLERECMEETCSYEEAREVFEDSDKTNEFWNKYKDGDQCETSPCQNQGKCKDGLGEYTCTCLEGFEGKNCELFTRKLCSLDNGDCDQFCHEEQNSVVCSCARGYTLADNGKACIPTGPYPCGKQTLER
Chain of Coagulation factor X (P00742 235-488 limits assumed): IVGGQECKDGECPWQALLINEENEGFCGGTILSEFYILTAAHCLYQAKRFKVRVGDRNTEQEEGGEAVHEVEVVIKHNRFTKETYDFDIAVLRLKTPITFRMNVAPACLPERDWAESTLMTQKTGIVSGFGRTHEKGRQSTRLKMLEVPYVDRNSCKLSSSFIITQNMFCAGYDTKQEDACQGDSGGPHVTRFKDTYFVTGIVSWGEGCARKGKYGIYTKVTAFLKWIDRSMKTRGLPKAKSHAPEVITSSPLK

SMILES | Ki (Coagulation factor X) | Ki (Prothrombin)
C[N+](C)(C)c1ccc(CNC(=O)c2cc3cc(O)ccc3n2Cc2cccc(C(=N)N)c2)cc1 | 28 nM | 12000 nM
Cc1cc(C)cc(CNC(=O)c2cc3c(O)cccc3n2Cc2cccc(C(=N)N)c2)c1 | 11 nM | 620 nM
N=C(N)c1cccc(CNC(=O)c2cc3cc(N)ccc3n2Cc2cccc(C(=N)N)c2)c1 | 84 nM | –
N=C(N)c1cccc(CNC(=O)c2cc3c(O)cccc3n2Cc2cccc(C(=N)N)c2)c1 | – | 3600 nM
N=C(N)c1cccc(Cn2c(C(=O)NCc3cccc(Cl)c3)cc3c(O)cccc32)c1 | 262 nM | –
N=C(N)c1cccc(Cn2c(C(=O)Nc3cc(Cl)cc(Cl)c3)cc3c(O)cccc32)c1 | 798 nM | –
N=C(N)c1cccc(Cn2c(C(=O)NCCc3cccc(Cl)c3)cc3c(O)cccc32)c1 | 707 nM | –
N=C(N)c1cccc(Cn2c(C(=O)NCc3cc(Cl)cc(Cl)c3)cc3c(O)cccc32)c1 | 5 nM | 771 nM
